Source: patent US11498899B2, “Nitrone herbicides” (FMC Corporation, priority 2016, dated 2022)

Experiments:
[1] = test system: foxtail, giant (giant foxtail, Setaria faberii); experiment: Test A preemergence, visual injury rating 0-100; format: in vivo
kochia (Kochia scoparia) [2] = experiment: Test A preemergence, visual injury rating 0-100; format: in vivo
[3] = test system: pigweed (Amaranthus retroflexus); experiment: Test A preemergence, visual injury rating 0-100; format: in vivo
[4] = test system: ragweed (common ragweed, Ambrosia elatior); experiment: Test A preemergence, visual injury rating 0-100; format: in vivo
[5] = test system: ryegrass, Italian (Italian ryegrass, Lolium multiflorum); experiment: Test A preemergence, visual injury rating 0-100; format: in vivo; conditions: 500 g ai/ha
[6] = test system: barnyardgrass (Echinochloa crus-galli); experiment: Test B flooded paddy test, visual rating 0-100; conditions: Flood, 250 g ai/ha, applied to paddy water, rated after 13 to 15 days
[7] = test system: blackgrass (Alopecurus myosuroides); experiment: Test A postemergence, visual injury rating 0-100; format: in vivo; conditions: 0 to 100 scale
[8] = test system: galium (catchweed bedstraw, Galium aparine); experiment: Test A postemergence, visual injury rating 0-100; format: in vivo; conditions: 0 to 100 scale
[9] = test system: foxtail, giant (giant foxtail, Setaria faberii); experiment: Test A postemergence, visual injury rating 0-100; format: in vivo; conditions: 0 to 100 scale
kochia (Kochia scoparia) [10] = experiment: Test A postemergence, visual injury rating 0-100; format: in vivo; conditions: 0 to 100 scale
corn (Zea mays) = experiment: Test A postemergence, visual injury rating 0-100; format: in vivo; conditions: 0 to 100 scale
[11] = test system: pigweed (Amaranthus retroflexus); experiment: Test A postemergence, visual injury rating 0-100; format: in vivo; conditions: 0 to 100 scale
[12] = test system: ragweed (common ragweed, Ambrosia elatior); experiment: Test A postemergence, visual injury rating 0-100; format: in vivo; conditions: 0 to 100 scale
[13] = test system: ryegrass, Italian (Italian ryegrass, Lolium multiflorum); experiment: Test A postemergence, visual injury rating 0-100; format: in vivo; conditions: 0 to 100 scale
[14] = test system: wheat (Triticum aestivum); experiment: Test A postemergence, visual injury rating 0-100; format: in vivo; conditions: 0 to 100 scale
[15] = test system: barnyardgrass (Echinochloa crus-galli); experiment: Test A postemergence, visual injury rating 0-100; format: in vivo; conditions: 0 to 100 scale
[16] = test system: ducksalad (Heteranthera limosa); experiment: Test B flooded paddy test, visual rating 0-100; conditions: Flood, 250 g ai/ha, applied to paddy water, rated after 13 to 15 days
rice (Oryza sativa) = experiment: Test B flooded paddy test, visual rating 0-100 (0 no effect, 100 complete control); conditions: Flood, 250 g ai/ha, applied to paddy water, rated after 13 to 15 days
[17] = test system: barnyardgrass (Echinochloa crus-galli); experiment: Test A preemergence, visual injury rating 0-100 (0 no effect, 100 complete control); format: in vivo

Structure (SMILES) | Foxtail, Giant plant response rating (0 to 100 scale) ([1]; 125 g ai/ha) | Foxtail, Giant plant response rating (0 to 100 scale) ([1]; 500 g ai/ha) | Kochia plant response rating (0 to 100 scale) (kochia (Kochia scoparia) [2]; 125 g ai/ha) | Kochia plant response rating (0 to 100 scale) (kochia (Kochia scoparia) [2]; 500 g ai/ha) | Pigweed plant response rating (0 to 100 scale) ([3]; 125 g ai/ha) | Pigweed plant response rating (0 to 100 scale) ([3]; 500 g ai/ha) | Ragweed plant response rating (0 to 100 scale) ([4]; 125 g ai/ha) | Ragweed plant response rating (0 to 100 scale) ([4]; 500 g ai/ha) | Ryegrass, Italian plant response rating (0 to 100 scale) [5] | Barnyardgrass plant response rating (0 to 100 scale) [6] | Blackgrass plant response rating ([7]; 125 g ai/ha) | Blackgrass plant response rating ([7]; 500 g ai/ha) | Galium plant response rating ([8]; 125 g ai/ha) | Galium plant response rating ([8]; 500 g ai/ha) | Foxtail, Giant plant response rating ([9]; 125 g ai/ha) | Foxtail, Giant plant response rating ([9]; 500 g ai/ha) | Kochia plant response rating (kochia (Kochia scoparia) [10]; 125 g ai/ha) | Kochia plant response rating (kochia (Kochia scoparia) [10]; 500 g ai/ha) | Corn plant response rating (corn (Zea mays); 125 g ai/ha) | Corn plant response rating (corn (Zea mays); 500 g ai/ha) | other results
CC1=[N+]([O-])C(C(=O)Nc2cccc(F)c2F)C(c2cccc(C(F)(F)F)c2C)C1 (racemic) [Compound 106] | 90 | 100 | 0 | 70 | 0 | 60 | 0 | 40 | 90 | 60 | 80 | 70 | 40 | 70 | 80 | 90 | 0 | 30 | 60 | 90 | Pigweed plant response rating ([11]; 125 g ai/ha): 0; Pigweed plant response rating ([11]; 500 g ai/ha): 20; Ragweed plant response rating ([12]; 125 g ai/ha): 30; Ragweed plant response rating ([12]; 500 g ai/ha): 70; Ryegrass, Italian plant response rating ([13]; 125 g ai/ha): 70; Ryegrass, Italian plant response rating ([13]; 500 g ai/ha): 70; Wheat plant response rating ([14]; 125 g ai/ha): 40; Wheat plant response rating ([14]; 500 g ai/ha): 70; Barnyardgrass plant response rating ([15]; 125 g ai/ha): 70; Barnyardgrass plant response rating ([15]; 500 g ai/ha): 90; Ducksalad plant response rating (0 to 100 scale) [16]: 70; Rice plant response rating (0 to 100 scale) (rice (Oryza sativa)): 0; Barnyardgrass plant response rating (0 to 100 scale) ([17]; 125 g ai/ha): 90; Barnyardgrass plant response rating (0 to 100 scale) ([17]; 500 g ai/ha): 90
CC1=[N+]([O-])C(C(=O)Nc2cccc(F)c2F)C(c2ccc(Cl)c(F)c2)C1 (racemic) [Compound 107] | 90 | 90 | 0 | 90 | 0 | 80 | 0 | 50 | 80 | 40 | 70 | 70 | 70 | 70 | 60 | 90 | 20 | 20 | 30 | 80 | Pigweed plant response rating ([11]; 125 g ai/ha): 0; Pigweed plant response rating ([11]; 500 g ai/ha): 30; Ragweed plant response rating ([12]; 125 g ai/ha): 30; Ragweed plant response rating ([12]; 500 g ai/ha): 60; Ryegrass, Italian plant response rating ([13]; 125 g ai/ha): 10; Ryegrass, Italian plant response rating ([13]; 500 g ai/ha): 70; Wheat plant response rating ([14]; 125 g ai/ha): 10; Wheat plant response rating ([14]; 500 g ai/ha): 60; Barnyardgrass plant response rating ([15]; 125 g ai/ha): 70; Barnyardgrass plant response rating ([15]; 500 g ai/ha): 90; Ducksalad plant response rating (0 to 100 scale) [16]: 70; Rice plant response rating (0 to 100 scale) (rice (Oryza sativa)): 0; Barnyardgrass plant response rating (0 to 100 scale) ([17]; 125 g ai/ha): 90; Barnyardgrass plant response rating (0 to 100 scale) ([17]; 500 g ai/ha): 90
CC1=[N+]([O-])C(C(=O)Nc2cccc(F)c2F)C(c2cc(C)cc(CF)c2)C1 (racemic) [Compound 108] | 90 | 100 | 20 | 90 | 0 | 70 | 0 | 70 | 90 | 0 | 90 | 90 | 50 | 70 | 70 | 90 | 0 | 20 | 60 | 90 | Pigweed plant response rating ([11]; 125 g ai/ha): 0; Pigweed plant response rating ([11]; 500 g ai/ha): 20; Ragweed plant response rating ([12]; 125 g ai/ha): 30; Ragweed plant response rating ([12]; 500 g ai/ha): 50; Ryegrass, Italian plant response rating ([13]; 125 g ai/ha): 40; Ryegrass, Italian plant response rating ([13]; 500 g ai/ha): 70; Wheat plant response rating ([14]; 125 g ai/ha): 30; Wheat plant response rating ([14]; 500 g ai/ha): 70; Barnyardgrass plant response rating ([15]; 125 g ai/ha): 70; Barnyardgrass plant response rating ([15]; 500 g ai/ha): 80; Ducksalad plant response rating (0 to 100 scale) [16]: 0; Rice plant response rating (0 to 100 scale) (rice (Oryza sativa)): 0; Barnyardgrass plant response rating (0 to 100 scale) ([17]; 125 g ai/ha): 90; Barnyardgrass plant response rating (0 to 100 scale) ([17]; 500 g ai/ha): 100
